Reference: US6392049B1, “Process for preparing 2,4-dihydroxypyridine and 2,4-dihydroxy-3-nitropyridine” (Aventis Pharmaceuticals Inc., priority 1996, dated 2002)
Where two headings read alike, the source gives them in different places.

Assays:
[1] = target: T1, A1 receptor (Rattus norvegicus, UniProt P25099); assay: A1 adenosine receptor binding, displacement of 3H-CHA, whole rat brain membranes; settings: 3H-CHA displacement, 25° C., 60 minutes
T1 construct: using a membrane preparation of whole rat brain; from tissue; host or cells: whole rat brain membranes
T1 sequence (P25099 1-326): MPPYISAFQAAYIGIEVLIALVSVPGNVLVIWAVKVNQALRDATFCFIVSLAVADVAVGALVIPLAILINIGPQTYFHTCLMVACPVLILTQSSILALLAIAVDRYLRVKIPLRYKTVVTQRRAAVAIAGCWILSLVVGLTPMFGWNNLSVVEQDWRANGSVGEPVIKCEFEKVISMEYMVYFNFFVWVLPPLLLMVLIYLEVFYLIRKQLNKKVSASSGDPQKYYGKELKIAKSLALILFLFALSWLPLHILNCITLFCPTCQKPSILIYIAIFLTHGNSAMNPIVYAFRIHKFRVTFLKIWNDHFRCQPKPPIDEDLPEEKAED
Experimental: Non-specific binding is assessed in the presence of 1 mM theophylline.
(§1) The assays are run in glass test tubes in duplicate at 25° C. Once the membranes are added, the tubes are vortexed and incubated at 25° C. for 60 minutes (A1 assay) or 90 minutes (A2 assay) on a rotary shaker. The assay tubes are vortexed halfway through the incubation and again near the end. The assays are terminated by rapid filtration through 2.4 cm GF/B filters using a Brandel Cell Harvestor. The test tubes are washed three times with cold 50 mM tris-HCl (pH 7.7 or 7.4), with filtration being completed within 15 seconds. The damp filter circles are placed in glass scintillation vials filled with 10 ml of Aquasol II (New England Nuclear). The vials are allowed to shake overnight on a rotary shaker and are placed into a liquid scintillation analyzer for two minute counts. IC50 values for receptor binding, i.e. the concentration at which a compound of Formula I displaced the radiolabeled standard, are obtained using a curve-fitting computer program (RS/1, Bolt, Beranek and Newman, Boston, Mass.).

[2] = target: T2, A2 receptor (Rattus norvegicus, UniProt P30543); assay: A2 adenosine receptor binding, displacement of 3H-CGS 21680, rat brain striatum membranes; settings: 3H-CGS 21680 displacement, rat brain striatum membranes, 25° C., 90 minutes; read-out: Adenosine Receptor Binding Activity/IC50 (nM) A2
T2 construct: using membranes from rat brain striatum; from tissue; host or cells: rat brain striatum membranes
T2 sequence (P30543 whole entry): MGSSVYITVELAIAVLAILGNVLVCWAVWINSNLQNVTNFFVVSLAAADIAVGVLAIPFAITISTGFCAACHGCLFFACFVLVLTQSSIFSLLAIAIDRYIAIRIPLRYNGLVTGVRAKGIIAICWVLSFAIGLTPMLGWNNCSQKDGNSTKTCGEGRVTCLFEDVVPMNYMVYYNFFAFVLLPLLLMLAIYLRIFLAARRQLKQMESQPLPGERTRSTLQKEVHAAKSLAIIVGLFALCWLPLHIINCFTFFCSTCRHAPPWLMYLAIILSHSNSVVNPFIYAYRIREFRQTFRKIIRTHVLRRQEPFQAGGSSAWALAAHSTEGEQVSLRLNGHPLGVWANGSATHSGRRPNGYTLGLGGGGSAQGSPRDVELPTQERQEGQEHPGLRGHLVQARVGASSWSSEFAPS
Experimental: Non-specific binding is assessed in the presence of 20 μm 2-chloroadenosine.
as §1

[3] = test system: swine coronary arteries; assay: In vitro vasorelaxation in isolated swine coronary arteries; type: cell-based
Experimental: Swine coronary arteries are obtained from a local slaughter house, dissected carefully and cleaned of fat, blood and adhering tissue. Rings approximately 2-3 mm wide are cut and transferred to water-jacketed tissue baths (10 mL) filled with warm (37° C.), oxygenated (O2/CO2:95%/5%) Krebs-Henseleit buffer and mounted on L-shaped hooks between stainless steel rods and a force transducer. […] PGF2a, before being exposed to 3 μM PGF2a.

[4] = Sus scrofa, read-out: Vasorelaxation in Swine Coronary Artery/IC50 (μM)
[5] = 50% reduction in tension of rings contracted with 3 μM PGF2a, read-out: Vasorelaxation in Swine Coronary Artery/IC50

| IC50 [1] | IC50 [2] | IC50 [3, 5] | Molecule | IC50 [3, 4] |
| --- | --- | --- | --- | --- |
| 417 nM | > 1000 nM |  | CCNC(=O)C1CC(n2cnc3c(NCCc4ccsc4)ncnc32)C(O)C1O (racemic) [Example 28, (±)-N^6-[1-(thiopen-3-yl)ethan-2-yl]carbocyclic adenosine-5′-N-ethyl carboxamide] |  |
| 8.8 nM | 43.4 nM | 0.493 µM | CCNC(=O)[C@H]1C[C@@H](n2cnc3c(N[C@@H](C)Cc4ccc(Cl)s4)ccnc32)[C@H](O)[C@@H]1O (relative stereo) [Example 36, [1S-[1a,2b,3b,4a(S*)]]-4-[7-[[2-(5-chloro-2-thienyl)-1-methylethyl]amino]-3H-imidazo[4,5-b]pyridin-3-yl]-N-ethyl-2,3-dihydroxycyclopentanecarboxamide] |  |
| 3.98 nM | 46.8 nM |  | CCNC(=O)C1CC(n2cnc3c(NC(CC)Cc4sccc4Cl)ccnc32)C(O)C1O (single isomer, unassigned) [Example 39, [1S-[1a,2b,3b,4a(S*)]]4-[7-[[2-(3-chloro-2-thienyl)-1-ethylethyl]amino]-3H-imidazo[4,5-b]pyridin-3-yl]-N-ethyl-2,3-dihydroxycyclopentane-carboxamide] |  |
| > 1000 nM | > 1000 nM | 19.1 µM | CCNC(=O)C1CC(n2cnc3c(N[C@H](C)Cc4ccc(Cl)s4)ncnc32)C2OC(C)(C)OC12 (single isomer, unassigned; (-)) [6(1)] |  |
| 3.8 nM | > 1000 nM |  | OC[C@H]1O[C@@H](n2cnc3c(NCCSc4nc5ccccc5s4)ncnc32)[C@H](O)[C@@H]1O [Example 10, N^6-[2-(2′-thiobenzothiazolyl)-ethyl]adenosine] |  |
| 79.4 nM | > 1000 nM |  | Cc1nc(CCNc2ncnc3c2ncn3[C@@H]2O[C@H](CO)[C@@H](O)[C@H]2O)cs1 [Example 14, N^6-[2-(2′-methyl-4′-thiazolyl)-ethyl]adenosine] |  |
| 1.7 nM | > 1000 nM |  | OC[C@H]1O[C@@H](n2cnc3c(NCCc4nc(-c5ccccc5)cs4)ncnc32)[C@H](O)[C@@H]1O [Example 16, N^6-[2-(4′-phenyl-2′-thiazolyl)-ethyl]adenosine] |  |
| 67.6 nM | 5250 nM | 18.8 µM | CC(C)(Cc1cccs1)Nc1ncnc2c1ncn2[C@@H]1O[C@H](CO)[C@@H](O)[C@H]1O [Example 17, N^6-[2-(1,1-dimethyl-2′-thiophenyl)ethyl]adenosine] |  |
| 36 nM | 1000 nM | 0.75 µM | OC[C@H]1O[C@@H](n2cnc3c(NCc4nc(-c5ccccc5)cs4)ncnc32)[C@H](O)[C@@H]1O [Example 19] |  |
| 3.98 nM | 158 nM |  | CC(Cc1nccs1)Nc1ncnc2c1ncn2[C@@H]1O[C@H](CO)[C@@H](O)[C@H]1O (stereo partly shown) [Example 20, N^6-[1-(thiazol-2-yl)prop-2-yl]-adenosine] |  |
| 0.09 nM | 14.8 nM |  | CCC(Cc1ccc(Cl)s1)Nc1ncnc2c1ncn2[C@@H]1O[C@H](CO)[C@@H](O)[C@H]1O (stereo partly shown) [Example 21, N^6-[1-(5″-chlorothien-2″-yl)-2-butyl]adenosine] |  |
| 0.03 nM | 8.9 nM |  | CCC(Cc1sccc1Cl)Nc1ncnc2c1ncn2[C@@H]1O[C@H](CO)[C@@H](O)[C@H]1O (stereo partly shown) [Example 31, N^6-[1-ethyl-2-(3-chlorothien-2-yl)ethyl]adenosine] |  |
|  | 45 nM |  | C[C@H](Cc1sccc1Cl)Nc1ncnc2c1ncn2[C@@H]1O[C@H](CO)[C@@H](O)[C@H]1O [Example 32, N^6-[1-methyl-2-(3-chlorothien-2-yl)ethyl]adenosine] |  |
| 14.2 nM | 158 nM |  | CCNC(=O)[C@H]1C[C@@H](n2cnc3c(N[C@H](CC)Cc4ccc(Cl)s4)ccnc32)[C@H](O)[C@@H]1O [Example 41] |  |
| 55 nM | 331 nM | 0.316 µM | (2S)-2a,3a-dihydroxy-4β-[N6-[2-(5-chloro-2-thienyl)-(1R)-1-methylethyl]amino-9-adenyl]cyclopentane-1β-N-ethylcarboxamide-2,3-carbonate [Example 44] |  |

| Molecule | IC50 [1] | IC50 [2] | IC50 [3, 5] | IC50 [3, 4] |
| --- | --- | --- | --- | --- |
| CCNC(=O)C1CC(n2cnc3c(NCCc4nccs4)ncnc32)C(O)C1O (racemic) [Example 25, (±)-N^6-[2-(2″-thiazolyl)ethyl]-carbocyclic adenosine-5′-N-ethyl carboxamide] | 1260 nM | 355 nM |  | 0.64 µM |
| CCNC(=O)[C@H]1O[C@@H](n2cnc3c(NC4CC=CCC4c4cccs4)ncnc32)[C@H](O)[C@@H]1O (single isomer, unassigned) [Example 5, N6-[trans-2-(thiophen-2-yl)cyclohex-4-en-1-yl]adenosine-5′-N-ethylcarboxamide] | 4.26 nM | 91 nM |  | 0.068 µM |
| CCNC(=O)[C@H]1O[C@@H](n2cnc3c(NC4CC=CCC4c4cccs4)ncnc32)[C@H](O)[C@@H]1O (single isomer, unassigned) [Example 22, N^6-[trans-2-(thiophen-2-yl)-cyclohex-4-en-1-yl]adenosine-5-N-ethyl carboxamide] | 2.69 nM | 29.5 nM |  | 0.1 µM |
| CCNC(=O)C1CC(n2cnc3c(NC(C)Cc4cccs4)ncnc32)C(O)C1O (single isomer, unassigned; (-)) [Example 27] | 5.01 nM | 29.5 nM |  | 0.043 µM |
| CCNC(=O)C1CC(n2cnc3c(N[C@H](CC)Cc4sccc4Cl)ncnc32)C(O)C1O (single isomer, unassigned; (-)) [Example 34] | 1.6 nM | 23 nM | 0.072 µM |  |
| CCNC(=O)[C@H]1C[C@@H](n2cnc3c(N[C@H](C)Cc4ccc(Cl)s4)[n+]([O-])cnc32)[C@H](O)[C@@H]1O [Example 35, (2S)-2a,3a-dihydroxy-4β-[N6-[2-(5-chloro-2-thienyl)-(1R)-1-methylethyl]amino-9-adenyl]cyclopentane-1β-N-ethylcarboxamide-N^1-oxide] | 1090 nM | 6350 nM |  | 3.3 µM |
| CCNC(=O)[C@H]1C[C@@H](n2cnc3c(NC(CC)Cc4sccc4Cl)ccnc32)[C@H](O)[C@@H]1O (stereo partly shown) [Example 37] | 16.2 nM | 110 nM |  | 0.45 µM |
| CCNC(=O)[C@H]1C[C@@H](n2cnc3c(N[C@H](C)Cc4ccc(Cl)s4)ncnc32)[C@H](OC(=O)OC)[C@@H]1OC(=O)OC [Example 42, (2S)-2a,3a-bis-methoxycarbonyloxy-4β-[N6-[2-(5-chloro-2-thienyl)-(1R)-1-methylethyl]amino-9-adenyl]cyclopentane-1β-N-ethylcarboxamide] | > 1000 nM | > 10000 nM |  | 2.44 µM |
| CCNC(=O)[C@H]1C[C@@H](n2cnc3c(N[C@H](C)Cc4ccc(Cl)s4)ncnc32)[C@@H]2OC(OCC)O[C@@H]21 (stereo partly drawn) [Example 43, (2S)-2a,3a-dihydroxy-4β-[N6-[2-(5-chloro-2-thienyl)-(1R)-1-methylethyl]amino-9-adenyl]cyclopentane-1β-N-ethylcarboxamide ethoxymethylene acetal] | 8430 nM | > 10000 nM |  | 7.83 µM |
| CCNC(=O)[C@H]1C[C@@H](n2cnc3c(N[C@H](C)Cc4ccc(Cl)s4)ncnc32)[C@H](OC(=O)NC)[C@@H]1OC(=O)NC [Example 45] | 6350 nM | > 10000 nM |  | 4.1 µM |
| CO[C@@H]1[C@H](O)[C@@H](CO)O[C@H]1n1cnc2c(N[C@H](C)Cc3sccc3Cl)ncnc21 [Example 47, N^6-[2-(3-chloro-2-thienyl)-(1R)-1-methylethyl]-2′-O-methyladenosine] | 23 nM | 2820 nM |  | 5.7 µM |
